Source: publication PMC12498426, “Conformational Plasticity of LptC Regulates Lipopolysaccharide Transport by the LptB2FGC Complex” (Journal of the American Chemical Society, 2025)

What was measured:
[1] = target: T1, LptB2FG (Escherichia coli, UniProt P0A9V1+P0ADC6+P0AF98); design: gene lptF; settings: POPE/POPG liposomes; 20 mM MgCl2; pH 7.5; 37 °C; 0-5 mM ATP; no LPS
T1 sequence (P0AF98 1-366): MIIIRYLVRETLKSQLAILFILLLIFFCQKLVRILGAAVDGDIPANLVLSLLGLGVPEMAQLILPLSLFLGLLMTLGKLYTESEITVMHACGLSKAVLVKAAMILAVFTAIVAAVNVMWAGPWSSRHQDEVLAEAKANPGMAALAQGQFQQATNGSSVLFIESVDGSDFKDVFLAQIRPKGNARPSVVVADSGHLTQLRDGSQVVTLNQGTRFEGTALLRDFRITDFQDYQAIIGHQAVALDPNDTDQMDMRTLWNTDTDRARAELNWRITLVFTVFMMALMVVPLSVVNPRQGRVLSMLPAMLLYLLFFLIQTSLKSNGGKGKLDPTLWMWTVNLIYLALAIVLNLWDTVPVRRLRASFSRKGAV
T1 sequence (P0ADC6 1-360): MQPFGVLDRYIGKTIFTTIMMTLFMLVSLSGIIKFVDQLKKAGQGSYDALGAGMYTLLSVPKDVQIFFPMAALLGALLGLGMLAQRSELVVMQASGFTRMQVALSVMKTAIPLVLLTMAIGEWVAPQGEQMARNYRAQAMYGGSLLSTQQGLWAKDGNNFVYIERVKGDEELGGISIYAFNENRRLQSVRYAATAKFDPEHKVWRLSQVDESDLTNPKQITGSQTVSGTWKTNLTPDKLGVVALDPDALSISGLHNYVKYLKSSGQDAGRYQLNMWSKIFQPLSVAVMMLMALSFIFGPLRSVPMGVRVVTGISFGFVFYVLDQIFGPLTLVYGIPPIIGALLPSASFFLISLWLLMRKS
T1 sequence (P0A9V1 2-241): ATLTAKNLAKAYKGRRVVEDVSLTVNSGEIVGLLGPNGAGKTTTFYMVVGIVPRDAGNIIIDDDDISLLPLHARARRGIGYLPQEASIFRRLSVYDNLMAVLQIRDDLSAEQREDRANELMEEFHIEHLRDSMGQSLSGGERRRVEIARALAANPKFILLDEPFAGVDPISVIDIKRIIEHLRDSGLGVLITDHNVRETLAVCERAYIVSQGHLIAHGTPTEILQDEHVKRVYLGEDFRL

[2] = target: T1, LptB2FG; assay: nanoDSF thermal shift; assay type: binding; design: gene lptF; full-length proteins, N-terminal His6-tag on LptB, pETDuet-1, expressed in E. coli, in DDM micelles or POPE/POPG liposomes; B2FG complex; settings: 2-fold molar excess of Ra-LPS; DDM micelles; pH 7.5; 5 mM MgCl2
[3] = target: T2, LptB2FGC (Escherichia coli, UniProt P0A9V1+P0ADC6+P0AF98); assay: nanoDSF thermal shift; assay type: binding; settings: 2-fold molar excess of Ra-LPS; DDM micelles; pH 7.5; 5 mM MgCl2
T2 construct: gene lptF; in vitro assembled from LptB2FG (N-terminal His6 on LptB) and full-length LptC (C-terminal His6); liposomes or resolubilized in DDM; 2:1:1:1, 158 kDa; with Lipopolysaccharide export system protein LptC

[4] = target: T3, LptB2FG complex (E. coli, UniProt P0A9V1 1-241; P0AF98 1-366; P0ADC6 1-360); assay: thermal shift assay (nanoDSF); LptB2FG and resolubilised LptB2FGC in 50 mM HEPES pH 7.5, 150 mM NaCl, 5 mM MgCl2, 5% glycerol, 0.05% DDM; 1 °C/min from 25 to 85 °C; first derivative of the 350 nm fluorescence; settings: both partners purified
T3 construct: LptF, transmembrane domain subunit of the lipopolysaccharide transporter, E. coli; LptG, transmembrane domain subunit of the lipopolysaccharide transporter, E. coli; Uniformly 13C-labelled for the TEDOR experiments; also called 13C-LptB2FG; ABC transporter LptB2FG; source: E. coli, co-expressed from pETDuet-1, membranes solubilised in DDM, purified (Ni-NTA); expression as previously described; …
T3 sequence (looked up) 1: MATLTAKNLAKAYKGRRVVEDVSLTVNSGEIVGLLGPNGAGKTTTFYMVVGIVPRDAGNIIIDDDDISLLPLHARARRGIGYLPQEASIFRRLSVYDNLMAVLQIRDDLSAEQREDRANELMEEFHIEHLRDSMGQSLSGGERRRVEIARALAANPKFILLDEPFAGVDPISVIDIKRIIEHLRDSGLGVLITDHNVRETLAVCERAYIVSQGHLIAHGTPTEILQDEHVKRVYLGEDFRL
T3 sequence (looked up) 2: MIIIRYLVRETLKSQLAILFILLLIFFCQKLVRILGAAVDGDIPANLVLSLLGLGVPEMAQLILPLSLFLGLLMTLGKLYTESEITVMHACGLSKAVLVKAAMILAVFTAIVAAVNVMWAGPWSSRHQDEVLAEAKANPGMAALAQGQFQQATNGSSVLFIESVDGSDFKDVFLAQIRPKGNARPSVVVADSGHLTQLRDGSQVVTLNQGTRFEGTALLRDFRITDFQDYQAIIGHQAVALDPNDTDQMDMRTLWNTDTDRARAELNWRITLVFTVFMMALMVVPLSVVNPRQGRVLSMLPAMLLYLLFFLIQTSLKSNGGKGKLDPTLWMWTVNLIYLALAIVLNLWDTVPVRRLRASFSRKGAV
T3 sequence (looked up) 3: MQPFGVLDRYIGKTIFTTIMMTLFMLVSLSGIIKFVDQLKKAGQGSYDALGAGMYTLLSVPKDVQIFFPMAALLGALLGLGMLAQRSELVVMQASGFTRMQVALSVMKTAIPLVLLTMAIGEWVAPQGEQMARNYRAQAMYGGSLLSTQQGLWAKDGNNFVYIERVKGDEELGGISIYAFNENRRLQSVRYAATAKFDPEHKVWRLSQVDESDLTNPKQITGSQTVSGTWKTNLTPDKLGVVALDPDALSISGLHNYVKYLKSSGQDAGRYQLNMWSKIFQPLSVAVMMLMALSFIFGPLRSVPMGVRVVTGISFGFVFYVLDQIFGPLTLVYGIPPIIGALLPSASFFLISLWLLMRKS

[5] = target: T3, LptB2FG complex; assay: native MS; LILBID-MS of LptB2FGC resolubilised in DDM micelles, apo state, 20 mM Tris-HCl pH 7.5, 0.05% DDM; settings: both partners purified

Nc1ncnc2c1ncn2[C@@H]1O[C@H](COP(=O)(O)OP(=O)(O)OP(=O)(O)O)[C@@H](O)[C@H]1O [ATP]
malachite green ATPase assay, proteoliposomes [1]: activity of LptB2FG and LptB2FGC was determined by measuring the release of inorganic phosphate

Ra-LPS
shift in melting temperature [2]: ~ 9 K
increase in melting temperature [3]: -271 °C

B1: LptC, full length with its transmembrane helix (natural protein, E. coli, UniProt P0ADV9 1-191, looked up)
chain: MSKARRWVIIVLSLAVLVMIGINMAEKDDTAQVVVNNNDPTYKSEHTDTLVYNPEGALSYRLIAQHVEYYSDQAVSWFTQPVLTTFDKDKIPTWSVKADKAKLTNDRMLYLYGHVEVNALVPDSQLRRITTDNAQINLVTQDVTSEDLVTLYGTTFNSSGLKMRGNLRSKNAELIEKVRTSYEIQNKQTQP
notes: LptC, E. coli, full length including the transmembrane helix; Isotope labelled for NMR (13C,15N-lysine or uniform 15N); also called 15N-LptC; 15N,13C-Lys-LptC; source: E. coli BL21(DE3), pBAD33.1, membranes solubilised in LS detergent, purified (Ni-NTA)
increase of melting temperature (nanoDSF) [4]: 11 K
stoichiometry N [5]: 1 LptC per LptB2FG
